In ChEMBL document CHEMBL1150809, “New acyclic sesquiterpenes and norsesquiterpenes from the Caribbean Gorgonian Plexaurella grisea” (J Nat Prod, 2001):
Converted amounts (≈) assume the structure as drawn.

Tests used:
Type in all cases: functional, cell-based
[1] = tested on: SK-MEL-28; assay: Cytotoxicity against human SK-MEL-28 cells
[2] = tested on: A549; assay: Cytotoxicity against human A549 cells
[3] = tested on: P388; assay: Cytotoxicity against mouse P388 cells
[4] = tested on: HT-29; assay: Cytotoxicity against human HT-29 cells

Row | SMILES | IC50 [1] | IC50 [2] | IC50 [3] | IC50 [4]
1 | C=C/C(C)=C/CC(OC(C)=O)C(=C)CCC=C(C)C (stereo not given) | 5 µg/mL (≈ 19.1 µM) | 5 µg/mL (≈ 19.1 µM) | 2.5 µg/mL (≈ 9.53 µM) | 5 µg/mL (≈ 19.1 µM)
2 | C=C/C(C)=C\C=C\C(C)CC(=O)CC(C)C (stereo not given) | 2.5 µg/mL (≈ 11.3 µM) | 2.5 µg/mL (≈ 11.3 µM) | 2.5 µg/mL (≈ 11.3 µM) | 2.5 µg/mL (≈ 11.3 µM)
3 | C=C/C(C)=C/C=C/C(C)CC(=O)CC(C)C (stereo not given) | 5 µg/mL (≈ 22.7 µM) | 5 µg/mL (≈ 22.7 µM) | 2.5 µg/mL (≈ 11.3 µM) | 5 µg/mL (≈ 22.7 µM)
4 | CC(C)=C/C=C\C(C)/C=C/C=C(\C)C=O (stereo not given) | > 10 µg/mL | > 10 µg/mL | > 10 µg/mL | > 10 µg/mL
5 | CC(C)=CCCC(C)/C=C/C=C(\C)C=O (stereo not given) | 2.5 µg/mL (≈ 12.1 µM) | 2.5 µg/mL (≈ 12.1 µM) | 0.5 µg/mL (≈ 2.42 µM) | 2.5 µg/mL (≈ 12.1 µM)
